Test system: T1, rlac1338
T1 construct: gene lac1338; 1,338 bp gene (about 445 residues), codon-optimised, in pET-32a(+), E. coli BL21(DE3); His-tag fusion (18 kD vector tag), ~68 kD by SDS-PAGE
Experiment: initial rates by OD405, Lineweaver-Burk
Assay type: biochemical, uncultured bacterium
Conditions: ± sign lost in table text
Description: initial rates by OD405, Lineweaver-Burk on rlac1338

[1] = mutant lac2-9, optimal pH 6.5 and 60°C, printed base change T698A falls in codon 233, not 232

SMILES	Km [1] [µM]	Km (optimal pH 6.0 and 55°C) [µM]
CCn1c(=NN=c2sc3cc(S(=O)(=O)O)ccc3n2CC)sc2cc(S(=O)(=O)O)ccc21 [ABTS, 2,2-azide-bis (3-ethylbenzothiazole-6-sulfonic acid)]	76 ± 1.8	210 ± 3.3
Oc1ccccc1O [Catecho]	570 ± 2.9	507 ± 2.5
COc1cccc(OC)c1O [2,6-DMP]	560 ± 3.7	654 ± 2.1
COc1ccccc1O [Guaiacol]	4300	4900
Oc1cccc2ccccc12 [1-naphthol]	6040	5600

— article PMC8149590, “Biochemical Characterization of a Novel Bacterial Laccase and Improvement of Its Efficiency by Directed Evolution on Dye Degradation” (Frontiers in Microbiology, 2021)
